Experimental data as given in patent US20070093515A1, “Phosphodiesterase 10 inhibitors” (priority 2005, published 2007).
pIC50: −log10 of the molar value.

Target: T1, mPDE10A7 (Mus musculus, UniProt Q8CA95)
T1 sequence (Q8CA95 446-763 limits assumed): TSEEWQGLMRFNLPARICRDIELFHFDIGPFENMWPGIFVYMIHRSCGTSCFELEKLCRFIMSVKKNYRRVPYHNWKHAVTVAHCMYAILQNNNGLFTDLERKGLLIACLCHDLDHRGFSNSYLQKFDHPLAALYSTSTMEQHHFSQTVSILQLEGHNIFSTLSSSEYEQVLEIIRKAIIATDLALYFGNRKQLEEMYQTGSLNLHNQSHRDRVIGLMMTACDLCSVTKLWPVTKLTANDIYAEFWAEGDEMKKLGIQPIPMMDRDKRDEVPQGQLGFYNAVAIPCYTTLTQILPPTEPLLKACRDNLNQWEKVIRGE
Assay: mPDE10A7 enzyme inhibition (IMAP fluorescence polarization, fluorescein labeled cAMP or cGMP)
Format: biochemical
Protocol: mPDE10A7 Enzyme Activity and Inhibition
To analyze the enzyme activity, 5 μL of serial diluted mPDE10A7 containing lysate were incubated with equal volumes of diluted (100-fold) fluorescein labeled cAMP or cGMP for 30 minutes in MDC HE 96-well assay plates at room temperature. Both the enzyme and the substrates were diluted in the following assay buffer: Tris/HCl (pH 8.0) 50 mM, MgCl2 5 mM, 2-mercaptoethanol 4 mM, BSA 0.33 mg/mL. After incubation, the reaction was stopped by adding 20 μL of diluted (400-fold) binding reagents and was incubated for an hour at room temperature. The plates were counted in an Analyst GT (Molecular Devices) for fluorescence polarization. An IMAP Assay kit (Molecular Device) was used to assess enzyme properties of mmPDE10A7. Data were analyzed with SoftMax Pro.
To check the inhibition profile, 10 μL of serial diluted compounds were incubated with 30 μl of diluted PDE enzymes in a 96-well polystyrene assay plate for 30 minutes at room temperature. After incubation, 5 μL of the compound-enzyme mixture were aliquoted into a MDC HE black plate, mixed with 5 μl of 100-fold diluted fluorescein labeled substrates (cAMP or cGMP), and incubated for 30 minutes at room temperature. The reaction was stopped by adding 20 μL of diluted binding reagents and counted in an Analyst GT for fluorescence polarization. The data were analyzed with SoftMax Pro.

COCCOc1cccc2c1CCN(c1ncnc3cc(OC)c(OC)cc13)C2=O [2-(6,7-dimethoxyquinazolin-4-yl)-5-(2-methoxyethoxy)-3,4-dihydroisoquinoline-1 (2H)-one]
pIC50: 6.66
